{"source": "patent US20160266153A1", "about": "“I[…] PREGABALIN” (Randox Laboratories Limited, priority 2015, published 2016)", "key": {"[1]": {"test_system": "antibody RS2845 (raised against Immunogen II)", "assay": "Competitive ELISA: HRP tracer (Tracer 1) versus pregabalin or potential cross-reactants for binding sites of polyclonal antibody RS2845", "settings": "for % Cross-Reactivity: % CR = IC50 pregabalin/IC50 CR x 100, cross-reactants assessed at 5 μg/ml, (S) pregabalin as calibrator; for IC50 (standard concentration which produces 50% B/B0): antibody RS2845 coated at 5 μg/ml, Tracer 1, (S) enantiomer of pregabalin as calibrator", "description": "The antibody titre is evaluated by coating a microtitre plate (Thermo Fisher Scientific NUNC, 468667) with antibody (125 μl/well) in coating buffer (10 mM Tris pH 8.5) at 37° C. for 2 hours. The plate is then washed 4 times over 10 minutes with working strength mixture of Tris-Buffered Saline and Tween 20 (TBST). 50 μl of sample/standard (pregabalin) is added to the appropriate wells in triplicate, followed by 75 μl of hapten-HRP conjugate and incubated at 25° C. for 1 hour. The plate is then washed and 125 μl of TMB (Randox Laboratories, 4380-15) added to each well and left at room temperature for 20 mins in the dark. The reaction is stopped using 125 μl of 0.2 M sulphuric acid. The absorbances are read at 450 nm with an ELISA microplate reader (BIO-TEK Instruments, Elx800) and the means calculated. Antibody sensitivity can then be determined.\nIgG was extracted from serum from the immunized animal the using ammonium sulphate/caprylic acid precipitation and the purified antibody was immobilised on a 96 well ELISA plate at 5 μg/ml in 10 mM TRIS buffer, pH 8.5 overnight at 4° C. The assay was based on competition for binding sites of a polyclonal antibody between HRP tracer and pregabalin or potential cross-reactants. The plate was washed (×3) with TBST and the calibrator (pregabalin) or potential cross reactants added (50 μl per well), followed by HRP tracer (75 μl/well) to the appropriate wells. The plates were then incubated for 60 minutes at 25° C. They were then subjected to 2 quick wash cycles using TBST, followed by 4×2 minute wash cycles. 125 μL of signal 25 (TMB) was then added to each well for 20 mins at room temperature in the dark. The reaction was stopped by the addition of 125 μl of 0.2 M Sulphuric Acid per well and the plates read immediately at 450 nm. Calibration curves were generated and these were used to determine the sensitivity and specificity of the immunoassay for pregabalin and potential cross-reactants. The data was inputted to a computer program called ‘KC Junior’ (Biotek). […] This program is used to calculate the IC50 values by dividing the 0 ng/ml optical density (OD) value by 2 and obtaining the concentration value from the curve for this OD.\nwherein % CR is the percentage cross-reactivity, IC50 pregabalin is the concentration of pregabalin which causes 50% displacement of signal and IC50 CR is the concentration of potential cross-reactant that causes 50% displacement of signal.\nThe antibody (RS2845) used to generate the data in the tables below was raised from Immunogen II (Example 9) and the HRP tracer was prepared as in Example 10 (Tracer 1)."}, "[2]": {"settings": "in vivo; cited from earlier work"}}, "data": [{"compound": "CCC(C)CC(C)N", "note": "(centres unmarked) [1,3-dimethylamylamine (DMAA), 1,3-dimethylamylamine]", "values": [{"measurement": "% Cross-Reactivity", "setting": "[1]", "value": 2.2, "unit": "%"}]}, {"compound": "NC(=O)N1c2ccccc2C=Cc2ccccc21", "note": "[Carbamazepine]", "values": [{"measurement": "% Cross-Reactivity", "setting": "[1]", "value": "<1", "unit": "%"}]}, {"compound": "N[C@H](CCC(=O)O)C(=O)O", "note": "[D-Glutamic Acid]", "values": [{"measurement": "% Cross-Reactivity", "setting": "[1]", "value": "<1", "unit": "%"}]}, {"compound": "NC(=O)OCC(COC(N)=O)c1ccccc1", "note": "[Felbamate]", "values": [{"measurement": "% Cross-Reactivity", "setting": "[1]", "value": "<1", "unit": "%"}]}, {"compound": "NCC1(CC(=O)O)CCCCC1", "note": "[Gabapentin]", "values": [{"measurement": "% Cross-Reactivity", "setting": "[1]", "value": "<1", "unit": "%"}]}, {"compound": "NCCCC(=O)O", "note": "[Gamma-aminobutyric acid]", "values": [{"measurement": "% Cross-Reactivity", "setting": "[1]", "value": "<1", "unit": "%"}]}, {"compound": "N[C@@H](CCC(=O)O)C(=O)O", "note": "[L-Glutamic Acid]", "values": [{"measurement": "% Cross-Reactivity", "setting": "[1]", "value": "<1", "unit": "%"}]}, {"compound": "COC[C@@H](NC(C)=O)C(=O)NCc1ccccc1", "note": "[Lacosamide]", "values": [{"measurement": "% Cross-Reactivity", "setting": "[1]", "value": "<1", "unit": "%"}]}, {"compound": "CC[C@@H](C(N)=O)N1CCCC1=O", "note": "[Levetiracetam]", "values": [{"measurement": "% Cross-Reactivity", "setting": "[1]", "value": "<1", "unit": "%"}]}, {"compound": "CNC[C@H](CC(=O)O)CC(C)C", "note": "[N-methylpregabalin, N-methyl pregabalin]", "values": [{"measurement": "% Cross-Reactivity", "setting": "[1]", "value": "<1", "unit": "%"}]}, {"compound": "CC(C)CC(CN)CC(=O)O", "note": "(centres unmarked) [Pregabalin, 3-(aminomethyl)-5-methylhexanoic acid]", "values": [{"measurement": "% Cross-Reactivity", "setting": "[1]", "value": 100, "unit": "%"}, {"measurement": "IC50 (standard concentration which produces 50% B/B0)", "setting": "[1]", "value": 0.266, "unit": "ng/mL"}, {"measurement": "IC50 (standard concentration which produces 50% B/B0)", "setting": "[1]; listed as pregabalin", "value": "about 0.266 ng/ml"}, {"measurement": "B/B0", "setting": "[1]; pregabalin 0.02 ng/ml", "value": 76, "unit": "%"}, {"measurement": "B/B0", "setting": "[1]; pregabalin 0.08 ng/ml", "value": 52, "unit": "%"}, {"measurement": "B/B0", "setting": "[1]; pregabalin 0.31 ng/ml", "value": 28, "unit": "%"}, {"measurement": "B/B0", "setting": "[1]; pregabalin 1.25 ng/ml", "value": 14, "unit": "%"}, {"measurement": "B/B0", "setting": "[1]; pregabalin 5.00 ng/ml", "value": 7, "unit": "%"}, {"measurement": "Dose excreted unchanged in the urine", "setting": "[2]", "value": "about 98%"}, {"measurement": "Metabolism", "setting": "[2]", "value": "negligible metabolism"}]}, {"compound": "NCCc1c[nH]c2ccc(O)cc12", "note": "[Serotonin]", "values": [{"measurement": "% Cross-Reactivity", "setting": "[1]", "value": "<1", "unit": "%"}]}, {"compound": "CC(C)(C)C(O)/C=C/c1ccc2c(c1)OCO2", "note": "(centres unmarked) [Stiripentol]", "values": [{"measurement": "% Cross-Reactivity", "setting": "[1]", "value": "<1", "unit": "%"}]}, {"compound": "Cc1ccsc1C(=CCCN1CCC[C@@H](C(=O)O)C1)c1sccc1C", "note": "[Tiagabine]", "values": [{"measurement": "% Cross-Reactivity", "setting": "[1]", "value": "<1", "unit": "%"}]}, {"compound": "CC1(C)O[C@@H]2[C@@H](CO[C@@]3(COS(N)(=O)=O)OC(C)(C)O[C@@H]23)O1", "note": "[Topiramate]", "values": [{"measurement": "% Cross-Reactivity", "setting": "[1]", "value": "<1", "unit": "%"}]}, {"compound": "CCCC(CCC)C(=O)O", "note": "[Valproic acid]", "values": [{"measurement": "% Cross-Reactivity", "setting": "[1]", "value": "<1", "unit": "%"}]}, {"compound": "C=CC(N)CCC(=O)O", "note": "(centres unmarked) [Vigabatrin]", "values": [{"measurement": "% Cross-Reactivity", "setting": "[1]", "value": "<1", "unit": "%"}]}]}
